Results: patent US20080103205A1, “Pesticidal compositions and methods of use” (priority 2006, published 2008)

Tests used:
[1] = system: Meloidogyne incognita eggs; test: M. incognita egg hatching; format: in vivo
Protocol: Meloidogyne incognita (plant parasitic nematode) eggs were collected from tomato plant roots and were suspended in water. The solution was either diluted or concentrated to adjust the egg load to about 5000/ml. AT stock solutions prepared in DMSO and 300 ul of test solution was placed in a well, along with 20 ul of aqueous solution containing eggs. The number of eggs in 20 ul solution ranged from 115 to 143 (n=10). Each treatment (2, 5, 10, 20, or 40 ppm) was replicated 5 times. Microplates were sealed with Parafilm™ and incubated at room temperature. Similar tests conducted with 0.2% DMSO alone served as controls. Egg hatching was monitored at 24, 72, 120, and 168 hr after incubation. Both moving and non-moving nematodes were counted to arrive at the number of eggs hatched. Proportion of egg hatch was calculated as the number of juveniles divided by total number of eggs.
VSCC blockers effect on M. incognita egg hatching is shown in the following tables where % hatched is rounded to the nearest percentage point and where “% C*” is % hatch, normalized to control.

[2] = system: European corn borer (Ostrinia nubilalis); test: Diet surface test on European corn borer larvae (2nd instar); format: in vivo; details: for No. dead: 10 larvae; for mortality at 6.25 ppm / mortality at 12.5 ppm / mortality at 50 ppm / mortality at 25 ppm: Ostrinia nubilalis
Protocol: Concentrations of 6.25, 12.5, 25, or 50 ppm AT blocker were prepared in 95% ethyl alcohol (EtOH). 95% EtOH alone served as control. European corn borer (ECB) diet prepared from the powdered diet supplied by French Agricultural Research, Inc. Diet (1-2 ml) was poured into small cups and allowed to cool to room temperature. Test solution (100 ul) was placed onto the diet surface and allowed to evaporate the solvent. Each concentration of chemical had 2 sets of 10 cups each. One late 2nd instar larva was placed in each cup and covered with lid having perforations for aeration. Cups were placed in an incubator for 7 days at 25±1° C. and 70±5% RH. After seven days, the weight of each larva was taken and any mortality was recorded. Then, the surviving larvae were transferred to fresh diet cups holding sufficient diet (5-6 ml) without chemicals and incubated at 25±1° C. and 70±5% RH until pupation. Weights of larvae were taken 14 days after transferring to fresh diet (21 days after start of treatment). Finally, the number of days until pupation was recorded.
Anion transporters caused larval death and a reduction in weight gain within 7 days exposure. The effect persisted for 2 weeks time on untreated diet, but total time to pupation was relatively unaffected.

[3] = 6.25 ppm, 21 days after feeding
[4] = 12.5 ppm, 21 days after feeding
[5] = 168 h, 6.25 ppm, 7 days after feeding
[6] = 168 h, 12.5 ppm, 7 days after feeding
[7] = 504 h, 6.25 ppm, 21 days after feeding
[8] = 504 h, 12.5 ppm, 21 days after feeding
[9] = 504 h, 50 ppm, 21 days after feeding

## O=C(O)c1cc([N+](=O)[O-])ccc1NCCCc1ccccc1 [NPPB, 5-Nitro-2-(3-phenylpropylamino)benzoic acid]
[1]; 2 ppm, 24 hr
  Eggs Hatched %: 10%
  Eggs Hatched % C* (% hatch, normalized to control): 100%
  Eggs Hatched No.: 61
[1]; 2 ppm, 72 hr
  Eggs Hatched %: 14%
  Eggs Hatched % C* (% hatch, normalized to control): 87%
  Eggs Hatched No.: 92
[1]; 2 ppm, 120 hr
  Eggs Hatched %: 19%
  Eggs Hatched % C* (% hatch, normalized to control): 86%
  Eggs Hatched No.: 127
[1]; 2 ppm, 168 hr
  Eggs Hatched %: 23%
  Eggs Hatched % C* (% hatch, normalized to control): 83%
  Eggs Hatched No.: 155
[1]; 5 ppm, 24 hr
  Eggs Hatched %: 10%
  Eggs Hatched % C* (% hatch, normalized to control): 100%
  Eggs Hatched No.: 58
[1]; 5 ppm, 72 hr
  Eggs Hatched %: 14%
  Eggs Hatched % C* (% hatch, normalized to control): 87%
  Eggs Hatched No.: 86
[1]; 5 ppm, 120 hr
  Eggs Hatched %: 18%
  Eggs Hatched % C* (% hatch, normalized to control): 82%
  Eggs Hatched No.: 118
[1]; 5 ppm, 168 hr
  Eggs Hatched %: 22%
  Eggs Hatched % C* (% hatch, normalized to control): 79%
  Eggs Hatched No.: 149
[1]; 10 ppm, 24 hr
  Eggs Hatched %: 9%
  Eggs Hatched % C* (% hatch, normalized to control): 90%
  Eggs Hatched No.: 58
[1]; 10 ppm, 72 hr
  Eggs Hatched %: 12%
  Eggs Hatched % C* (% hatch, normalized to control): 75%
  Eggs Hatched No.: 82
[1]; 10 ppm, 120 hr
  Eggs Hatched %: 16%
  Eggs Hatched % C* (% hatch, normalized to control): 72%
  Eggs Hatched No.: 105
[1]; 10 ppm, 168 hr
  Eggs Hatched %: 20%
  Eggs Hatched % C* (% hatch, normalized to control): 71%
  Eggs Hatched No.: 129
[1]; 20 ppm, 24 hr
  Eggs Hatched %: 9%
  Eggs Hatched % C* (% hatch, normalized to control): 90%
  Eggs Hatched No.: 52
[1]; 20 ppm, 72 hr
  Eggs Hatched %: 11%
  Eggs Hatched % C* (% hatch, normalized to control): 69%
  Eggs Hatched No.: 67
[1]; 20 ppm, 120 hr
  Eggs Hatched %: 14%
  Eggs Hatched % C* (% hatch, normalized to control): 64%
  Eggs Hatched No.: 85
[1]; 20 ppm, 168 hr
  Eggs Hatched %: 17%
  Eggs Hatched % C* (% hatch, normalized to control): 61%
  Eggs Hatched No.: 106
[1]; 40 ppm, 24 hr
  Eggs Hatched %: 8%
  Eggs Hatched % C* (% hatch, normalized to control): 80%
  Eggs Hatched No.: 47
[1]; 40 ppm, 72 hr
  Eggs Hatched %: 11%
  Eggs Hatched % C* (% hatch, normalized to control): 69%
  Eggs Hatched No.: 61
[1]; 40 ppm, 120 hr
  Eggs Hatched %: 11%
  Eggs Hatched % C* (% hatch, normalized to control): 50%
  Eggs Hatched No.: 74
[1]; 40 ppm, 168 hr
  Eggs Hatched %: 12%
  Eggs Hatched % C* (% hatch, normalized to control): 43%
  Eggs Hatched No.: 82
[2]; 6.25 ppm, 7 days after feeding
  No. dead: 0
[2]; [3]
  No. dead: 0
[2]; 12.5 ppm, 7 days after feeding
  No. dead: 0
[2]; [4]
  No. dead: 0
[2]; 25 ppm, 21 days after feeding
  No. dead: 2
[2]; 50 ppm
  Days for pupation: 0 days
[2]; 50 ppm, 7 days after feeding
  No. dead: 8
[2]; 50 ppm, 21 days after feeding
  % wt reduction to control: 0%
  Mean wt of survived larvae, mg: 0 mg
  No. dead: 10
[2]; [5]
  mortality at 6.25 ppm: 0%
[2]; [6]
  mortality at 12.5 ppm: 0%
[2]; 168 h, 50 ppm, 7 days after feeding
  mortality at 50 ppm: 80%
[2]; [7]
  mortality at 6.25 ppm: 0%
[2]; [8]
  mortality at 12.5 ppm: 0%
[2]; 504 h, 25 ppm, 21 days after feeding
  mortality at 25 ppm: 20%
[2]; [9]
  mortality at 50 ppm: 100%

## O=C(O)c1c2ccccc2cc2ccccc12 [9-AC, anthracene-9-carboxylic acid]
[1]; 2 ppm, 24 hr
  Eggs Hatched %: 10%
  Eggs Hatched % C* (% hatch, normalized to control): 100%
  Eggs Hatched No.: 65
[1]; 2 ppm, 72 hr
  Eggs Hatched %: 15%
  Eggs Hatched % C* (% hatch, normalized to control): 94%
  Eggs Hatched No.: 101
[1]; 2 ppm, 120 hr
  Eggs Hatched %: 20%
  Eggs Hatched % C* (% hatch, normalized to control): 91%
  Eggs Hatched No.: 134
[1]; 2 ppm, 168 hr
  Eggs Hatched %: 25%
  Eggs Hatched % C* (% hatch, normalized to control): 91%
  Eggs Hatched No.: 167
[1]; 5 ppm, 24 hr
  Eggs Hatched %: 9%
  Eggs Hatched % C* (% hatch, normalized to control): 90%
  Eggs Hatched No.: 67
[1]; 5 ppm, 72 hr
  Eggs Hatched %: 14%
  Eggs Hatched % C* (% hatch, normalized to control): 87%
  Eggs Hatched No.: 98
[1]; 5 ppm, 120 hr
  Eggs Hatched %: 18%
  Eggs Hatched % C* (% hatch, normalized to control): 82%
  Eggs Hatched No.: 129
[1]; 5 ppm, 168 hr
  Eggs Hatched %: 22%
  Eggs Hatched % C* (% hatch, normalized to control): 79%
  Eggs Hatched No.: 155
[1]; 10 ppm, 24 hr
  Eggs Hatched %: 9%
  Eggs Hatched % C* (% hatch, normalized to control): 90%
  Eggs Hatched No.: 62
[1]; 10 ppm, 72 hr
  Eggs Hatched %: 13%
  Eggs Hatched % C* (% hatch, normalized to control): 81%
  Eggs Hatched No.: 90
[1]; 10 ppm, 120 hr
  Eggs Hatched %: 17%
  Eggs Hatched % C* (% hatch, normalized to control): 77%
  Eggs Hatched No.: 118
[1]; 10 ppm, 168 hr
  Eggs Hatched %: 20%
  Eggs Hatched % C* (% hatch, normalized to control): 71%
  Eggs Hatched No.: 141
[1]; 20 ppm, 24 hr
  Eggs Hatched %: 9%
  Eggs Hatched % C* (% hatch, normalized to control): 90%
  Eggs Hatched No.: 59
[1]; 20 ppm, 72 hr
  Eggs Hatched %: 12%
  Eggs Hatched % C* (% hatch, normalized to control): 75%
  Eggs Hatched No.: 80
[1]; 20 ppm, 120 hr
  Eggs Hatched %: 15%
  Eggs Hatched % C* (% hatch, normalized to control): 68%
  Eggs Hatched No.: 102
[1]; 20 ppm, 168 hr
  Eggs Hatched %: 18%
  Eggs Hatched % C* (% hatch, normalized to control): 64%
  Eggs Hatched No.: 122
[1]; 40 ppm, 24 hr
  Eggs Hatched %: 9%
  Eggs Hatched % C* (% hatch, normalized to control): 90%
  Eggs Hatched No.: 60
[1]; 40 ppm, 72 hr
  Eggs Hatched %: 12%
  Eggs Hatched % C* (% hatch, normalized to control): 75%
  Eggs Hatched No.: 76
[1]; 40 ppm, 120 hr
  Eggs Hatched %: 14%
  Eggs Hatched % C* (% hatch, normalized to control): 64%
  Eggs Hatched No.: 94
[1]; 40 ppm, 168 hr
  Eggs Hatched %: 15%
  Eggs Hatched % C* (% hatch, normalized to control): 54%
  Eggs Hatched No.: 103
[2]; 6.25 ppm, 7 days after feeding
  No. dead: 0
[2]; [3]
  No. dead: 0
[2]; 12.5 ppm, 7 days after feeding
  No. dead: 0
[2]; [4]
  No. dead: 0
[2]; 25 ppm
  Days for pupation: 26.0 days
[2]; 25 ppm, 7 days after feeding
  No. dead: 0
[2]; [5]
  mortality at 6.25 ppm: 0%
[2]; [6]
  mortality at 12.5 ppm: 0%
[2]; 168 h, 25 ppm, 7 days after feeding
  mortality at 25 ppm: 0%
[2]; [7]
  mortality at 6.25 ppm: 0%
[2]; [8]
  mortality at 12.5 ppm: 0%
[2]; [9]
  mortality at 50 ppm: 60%
